Several values for one entry are separate records, joined by “and”; a condition that tells them apart may be missing. Equal entries are not always repeated. Each block holds one molecule with its values, some of them ahead of it.
Assays:
mGLP1R = biological target: T1, mGLP1R (Mus musculus, UniProt O35659); experiment: HTRF cAMP assay in transiently transfected AD293 cells; type: cell-based; conditions: 30 min 37 °C, n = 4 independent repeats, Extended Data Table 1, read-out: mGLP1R EC50 best-fit
T1 construct: expressed in transfected cells; host or cells: AD293 cells, transient transfection (Lipofectamine 2000)
T1 sequence (O35659 22-463): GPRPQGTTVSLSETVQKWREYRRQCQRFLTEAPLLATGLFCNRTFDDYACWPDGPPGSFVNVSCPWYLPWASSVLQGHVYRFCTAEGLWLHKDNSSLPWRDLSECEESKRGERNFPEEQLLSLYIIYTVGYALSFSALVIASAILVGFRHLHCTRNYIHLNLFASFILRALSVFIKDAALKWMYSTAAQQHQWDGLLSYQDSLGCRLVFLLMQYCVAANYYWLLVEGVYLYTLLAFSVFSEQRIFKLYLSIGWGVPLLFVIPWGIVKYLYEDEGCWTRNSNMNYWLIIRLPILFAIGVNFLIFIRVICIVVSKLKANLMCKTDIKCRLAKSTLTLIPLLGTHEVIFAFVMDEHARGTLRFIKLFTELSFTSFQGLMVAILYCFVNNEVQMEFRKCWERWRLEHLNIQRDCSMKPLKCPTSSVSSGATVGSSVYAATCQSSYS

mGIPR = biological target: T2, mGIPR (Mus musculus, UniProt Q0P543); experiment: as above; type: cell-based; conditions: cAMP, AD293 cells, 30 min 37 °C, n = 4 independent repeats; Extended Data Table 1; read-out: mGIPR EC50 best-fit
T2 construct: expressed in transfected cells; host or cells: AD293 cells, transient transfection (Lipofectamine 2000)
T2 sequence (Q0P543 19-460): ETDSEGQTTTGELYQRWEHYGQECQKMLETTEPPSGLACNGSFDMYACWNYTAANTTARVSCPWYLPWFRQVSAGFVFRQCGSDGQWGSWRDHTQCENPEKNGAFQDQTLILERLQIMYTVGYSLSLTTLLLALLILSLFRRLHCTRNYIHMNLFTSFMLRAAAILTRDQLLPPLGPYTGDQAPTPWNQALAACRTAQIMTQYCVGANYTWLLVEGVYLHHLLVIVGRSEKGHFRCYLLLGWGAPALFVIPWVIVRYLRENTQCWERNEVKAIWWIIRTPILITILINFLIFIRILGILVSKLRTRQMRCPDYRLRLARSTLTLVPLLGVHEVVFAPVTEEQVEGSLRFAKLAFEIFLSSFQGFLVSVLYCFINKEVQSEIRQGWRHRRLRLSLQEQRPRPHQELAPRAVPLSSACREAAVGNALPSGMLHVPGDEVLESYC
Experimental: (§1) AD293 cells (RRID:CVCL_9804) were transiently transfected 24 h before the assay in six-well plates with plasmids encoding wild-type hGLP1R, mGLP1R, hGIPR or mGIPR using Lipofectamine 2000. AD293 cells were authenticated at source using STR profiling. Cells were detached and treated with a range of agonist concentrations in serum-free DMEM + 0.1% BSA for 30 min at 37 °C in 96-well plates, followed by the addition of lysis buffer 2 (Cisbio) at a 1:2 ratio. Lysates were further diluted 1:10 to avoid spectral interference from the higher concentrations of fluorescent ligands in the HTRF assay, and the concentration of cAMP was determined after the addition of cAMP Dynamic detection reagents (Cisbio).

hGIPR = biological target: T3, hGIPR (Homo sapiens, UniProt P48546); experiment: as above; type: cell-based; conditions: 30 min 37 °C, n = 4 independent repeats, Extended Data Table 1, read-out: hGIPR EC50 best-fit
T3 construct: expressed in transfected cells; host or cells: AD293 cells, transient transfection (Lipofectamine 2000)
T3 sequence (P48546 22-466): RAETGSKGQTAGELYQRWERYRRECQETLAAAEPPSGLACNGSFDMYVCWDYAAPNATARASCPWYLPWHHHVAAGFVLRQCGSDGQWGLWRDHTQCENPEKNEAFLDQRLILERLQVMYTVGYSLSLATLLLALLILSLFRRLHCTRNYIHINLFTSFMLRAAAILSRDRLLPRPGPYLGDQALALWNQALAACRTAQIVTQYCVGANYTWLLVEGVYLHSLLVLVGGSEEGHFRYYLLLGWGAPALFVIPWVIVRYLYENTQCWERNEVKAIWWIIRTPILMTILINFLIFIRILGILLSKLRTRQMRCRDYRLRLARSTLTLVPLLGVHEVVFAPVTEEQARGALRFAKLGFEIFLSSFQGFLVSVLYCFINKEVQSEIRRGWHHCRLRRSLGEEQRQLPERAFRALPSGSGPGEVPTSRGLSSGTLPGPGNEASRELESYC
Experimental: as §1

GIP(1-42) = biological target: T4, GIP(1-42) (Homo sapiens, UniProt P09681); experiment: competition
T4 chain: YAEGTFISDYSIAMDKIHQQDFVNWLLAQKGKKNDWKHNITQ

Molecule: CC[C@H](C)[C@H](NC(=O)[C@H](CC(C)C)NC(=O)[C@H](Cc1c[nH]c2ccccc12)NC(=O)[C@H](CCC(N)=O)NC(=O)[C@@H](NC(=O)[C@H](Cc1ccccc1)NC(=O)[C@H](C)NC(=O)[C@H](CCCCNC(=O)COCCOCCNC(=O)COCCOCCNC(=O)CC[C@H](NC(=O)CCCCCCCCCCCCCCCCCCC(=O)O)C(=O)O)NC(=O)[C@H](CCC(N)=O)NC(=O)[C@H](C)NC(=O)[C@@H](NC(=O)[C@H](CCCCN)NC(=O)[C@H](CC(=O)O)NC(=O)[C@H](CC(C)C)NC(=O)C(C)(C)NC(=O)[C@@H](NC(=O)[C@H](CO)NC(=O)[C@H](Cc1ccc(O)cc1)NC(=O)[C@H](CC(=O)O)NC(=O)[C@H](CO)NC(=O)[C@@H](NC(=O)[C@H](Cc1ccccc1)NC(=O)[C@@H](NC(=O)CNC(=O)[C@H](CCC(=O)O)NC(=O)C(C)(C)NC(=O)[C@@H](N)Cc1ccc(O)cc1)[C@@H](C)O)[C@@H](C)O)[C@@H](C)CC)[C@@H](C)CC)C(C)C)C(=O)N[C@@H](C)C(=O)NCC(=O)NCC(=O)N1CCC[C@H]1C(=O)N[C@@H](CO)C(=O)N[C@@H](CO)C(=O)NCC(=O)N[C@@H](C)C(=O)N1CCC[C@H]1C(=O)N1CCC[C@H]1C(=O)N1CCC[C@H]1C(=O)N[C@@H](CO)C(N)=O [tirzepatide]
EC50 (mGLP1R): 29.4 nM | EC50 (mGIPR): 112 nM | EC50 (hGIPR): 0.641 nM

Ki (GIP(1-42)): 13.9 nM and 9.38 nM
B1: GIPR (protein)
chain: T3 sequence (P48546 22-466)

— publication PMC12373499 (Nature Metabolism, 2025)
